Test results reported in patent publication US12636313B2, “Nutraceutical or pharmaceutical composition comprising iron pyrophosphate for treating and/or preventing iron deficiency conditions or diseases” (NEILOS S.R.L., priority 2019, dated 2026).

Assays:
[1] = after 120 minutes in sham gastric environment, 0.1 M HCl, 37° C., 75 rpm, six replicates
Experimental: 1 g of sample was weighed and introduced into the container of the dissolving apparatus containing 900 mL of 0.1 M HCl. The dissolution was performed for 2 h at 37° C. and 75 rpm. After dissolution, 1 mL of sample was diluted to 50 mL with 0.1 M HCl. The preparation was performed in six replicates for each sample.

[2] = system: subjects with advanced cancer and plasma iron levels below 60 μg/dL; conditions: 30 mg/day, 30-day treatment, 42 subjects with advanced cancer; cited from earlier work

## O=P([O-])([O-])OP(=O)([O-])[O-].O=P([O-])([O-])OP(=O)([O-])[O-].O=P([O-])([O-])OP(=O)([O-])[O-].[Fe+3].[Fe+3].[Fe+3].[Fe+3] [iron pyrophosphate as such, iron pyrophosphate]
[1]
  amount of iron released: 7.5 g per 100 g of formulation
[2]
  ferritinaemia level: enhanced
  haemoglobinaemia level: enhanced
  side effects: without appearance of side effects
  sideraemia level: enhanced
